Test results published in patent publication US20040185128A1, “Use of an extract of the root of balloon-flower for preventing and treating a degenerative brain disease or for enhancing memory” (priority 2001, published 2004).

How the values were obtained:
Male rats = experiment: Passive-avoidance test after ethanol administration; assay type: in vivo, rat; conditions: 250 mg/kg composition (Tacrine 2.5 mg/kg) daily for a week; 3 g/kg 50% ethanol oral before learning; tested 24 hours later, up to 300 seconds
Description: Male rats, each weighing about 18 to 20 g, were raised under a condition of temperature 22±1° C. and 12L/12D photoperiod for 7 days while being allowed free access to food and water and used in the Test after 3 days of acclimatization.
The passive avoidance test composed of consecutively learning and testing procedures was conducted over a period of 2 days (interval: 24hours) using PACS-30 shuttle box system (Columbus Instrument Co.).
30 minutes after the 7th (last) administeration, a 3 g/kg dose of 50% ethanol was orally administered to respective rats. After 1 hour, the rats were placed in the bright area of a room which was divided into a dark and bright areas by a guillotin door and allowed to stay there for 30 seconds (the searching time). The guillotin door was opened to let the rats move to the dark side of the room. […] The time the rats took to move from the bright side to the dark side was measured automatically. […]
24 hours after the learning procedure, test procedure was conducted as follows. After 30 seconds of the searching time and opening of the gillontin door, the time the test animal took to move from the bright side to the dark side (latency time) was measured up to the extent 300 seconds. […]

[1] = target: T1, recombinant human muscarinic acetylcholine receptor subtype 1 (mAChR-M1) (Homo sapiens, UniProt P11229); experiment: Inhibition of [3H]N-methyl-scopolamine binding to muscarinic acetylcholine receptor subtype 1; conditions: control compound, read-out: concentration inhibiting the ligand binding to receptor by 50%
T1 construct: purchased BSR BSR-MM1H; host or cells: Chinese Hamster Ovary (CHO) cells
T1 sequence (P11229 1-460): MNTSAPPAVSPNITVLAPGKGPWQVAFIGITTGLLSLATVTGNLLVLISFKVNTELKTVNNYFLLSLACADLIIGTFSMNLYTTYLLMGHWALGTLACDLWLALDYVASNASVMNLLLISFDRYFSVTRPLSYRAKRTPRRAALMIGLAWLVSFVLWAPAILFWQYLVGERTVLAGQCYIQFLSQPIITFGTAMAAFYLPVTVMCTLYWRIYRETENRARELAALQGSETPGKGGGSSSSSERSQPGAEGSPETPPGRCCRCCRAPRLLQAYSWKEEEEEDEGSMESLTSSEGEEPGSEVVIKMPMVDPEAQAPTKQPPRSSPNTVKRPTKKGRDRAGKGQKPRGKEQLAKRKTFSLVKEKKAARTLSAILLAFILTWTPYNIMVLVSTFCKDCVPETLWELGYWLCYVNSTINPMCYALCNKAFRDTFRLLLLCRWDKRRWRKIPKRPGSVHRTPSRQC
Description: The ability of each of the compositions obtained in Example 1 in enhancing acetylcholine activity was measured by examining to what extent the binding of a ligand to muscarin acetylcholine receptor subtype 1(M1) is suppressed. That is, an excess amount of a radioactive isotope-labeled ligand was allowed to react with the receptor, unbound ligand was removed by filtering using a glass fiber filter and the amount of the isotope-labeled ligand on the filter was measured to quantify the amount of ligand bound to receptor, and thus, the effects of the compositions of the present invention was determined.
As the receptor, recombinant human muscarinic acetylcholine receptor subtype 1(mAChR-M1, BSR-MM1H, BSR) expressed in Chinese Hamster Ovary (CHO) cells was used. 250 μl of a deep-frozen (−70° C.) receptor fraction was suspended in 10 ml of phosphate buffer saline (PBS) (pH 7.4) and the concentration of the protein was adjusted to 130 μg/ml.
50 μl of 0.5 nM [^3H] N-methyl-scopolamine (24,605 DPM) (NEN, NET-636) and 10 μl of a test composition were added to each well of 96-well microtiter plate (Inotech harvester). […] The filtermat was dried in a microwave oven and the amount of the ligand bound to the receptor was evaluated by determining the radioactivity with the liquid scintillation counter (MicroBeta 1450 Plus; Wallac, Finland). […]

[2] = target: T2, NMDA-receptor (glycine site) (Rattus norvegicus, UniProt P35439); experiment: Inhibition of [3H]MDL 105,519 binding to the glycine site of NMDA receptor (rat forebrain fraction); conditions: control compound, read-out: concentration inhibiting the ligand binding to receptor by 50%
T2 construct: Preparation of NMDA Receptor Fraction from Rat's Cerebrum; from tissue; host or cells: forebrain membrane fraction of male Sprague-Dawley rat
Text: The fact that the compositions of the present invention suppresses neuron damage was confirmed as follows by examining the activity thereof in suppressing the binding formation of NMDA-receptor (glycine site) bound. NMDA (N-Methyl-D-Aspartate) which acts as an excitatory neurotransmitter induces neuron damage.
That is, an excess amount of a radioactive isotope-labeled ligand was allowed to react with the receptor, unbound ligand was removed by filtering using a glass fiber filter and the amount of the isotope-labeled ligand on the filter was measured to quantify the amount of ligand bound to receptor, and thus, the effects of the compositions of the present invention was determined.
Forebrain taken from a male Spargue-Dawley rat was sliced and a 10-fold volume of cold sucrose solution ([…]) was added thereto. The resulting mixture was homogenized (5 strokes) using a Teflon-glass homogenizer, and then centrifuged at 1000 g (10 min., 4° C.). The supernatant was centrifuged at 20000 g (20 min., 4° C.) to obtain a precipitate, a 20-fold volume of cold distilled water was added thereto and homogenized using Brinkman Polytron Homogenizer. […] The protein content was measured according to Bradford method and the protein concentration of suspension was adjusted to 1 mg/ml, divided into several fractions and kept at −70° C. […]

Nc1c2c(nc3ccccc13)CCCC2 [Comparative group, 9-amino-1,2,3,4-tetrahydroacrine]
Latency Time (Male rats): 31 s

C[N+]1(C)CCC(OC(=O)C(c2ccccc2)c2ccccc2)CC1 [4-DAMP methiodide]
IC50 [1]: 24 nM

O=C(O)c1cc(=O)c2c(Cl)cc(Cl)cc2[nH]1 [5,7-DCKA, 5,7-Dichlorokynurenic acid]
IC50 [2]: 1000 nM
